Patent US20090275085A1, “Enzyme for Obtaining Prebiotic Oligosaccharides” (CONSEJO SUPERIOR DE INVESTIGACIONES CIENTIFICAS, priority 2004, published 2009)

Experiments:
Format in all cases: biochemical, Xanthophyllomyces dendrorhous
[1] = tested on: purified X. dendrorhous enzyme (F-3); assay: Glycosyltransferase activity: incubating maltose (240 g/l) with the purified X. dendrorhous enzyme (F-3), HPLC analysis; conditions: for composition of the system: after 288 hours, maltose 240 g/l, 0.7 μg α-glucosidase, pH 5.4, 40° C., 200 rpm; for Composition of the reaction mixture: 240 g maltose/l, 0.2 M sodium acetate pH 5.4, 40° C., 150 rpm
Protocol: 0.7 μg of α-glucosidase from the pure solution of α-glucosidase corresponding to fraction 3 of TABLE 2 were added. […] Aliquots were extracted at different times and incubated for 5 minutes at 80° C. to inactivate the enzyme. They were diluted to 1:4 (v/v) with water, centrifuged for 5 minutes at 6000 rpm in an Eppendorf tube with a 0.45 μam filter and analyzed by HPLC liquid chromatography.

[2] = tested on: X. dendrorhous extracellular fraction α-glucosidase; assay: α-glucosidase activity of the X. dendrorhous extracellular (cell-free, F-0) fraction on different glucose polymers, glucose release by glucose oxidase-peroxidase; conditions: for α-glucosidase activity detected on substrate: cell-free fraction (F-0)
Protocol: The production of α-glucosidase activity was analyzed in X. dendrorhous cultures grown in minimal medium for yeasts: 0.7% YNB (Yeast Nitrogen Base w/o Amino acids, DIFCO) (w/v), 2% carbon source. The cultures were carried out in glass flasks incubated at 24° C. and with constant stirring at 160 rpm.
(§1) The cell-free fraction was obtained by centrifugation (F-0) and α-glucosidase activity in this fraction was tested, assessing the release of glucose on different substrates. A […] test and standard methodology were used. The released glucose was quantified using the glucose oxidase-peroxidase coupled reaction: 0.4 ml of the solution to be assessed was mixed with 0.1 ml of A:B solution (20:1) (A: 0.85 U/ml glucose oxidase, 0.40 U/ml peroxidase in sodium phosphate buffer pH 5; B: 0.6% O-dianisidine). It was incubated for 30 minutes at 37° C. and spectrophotometrically quantified at 450 nm. A standard glucose curve (1 to 100 μg/ml) was used. The α-glucosidase activity unit is defined as the amount of enzyme required to release 20 μg/ml of glucose under the described conditions.

[3] = tested on: X. dendrorhous α-glucosidase, enzyme purified to homogeneity (F-3); assay: α-glucosidase (hydrolytic) activity of the X. dendrorhous F-3 fraction on different substrates; conditions: for hydrolytic activity observed on substrate: enzyme purified to homogeneity (F-3); for Specific activity: F-3 fraction, purified protein, 1% concentration of substrate
Protocol: as §1
The hydrolytic activity of the enzyme purified to homogeneity (F-3) following the described process was tested on different substrates.

Row | Compound | composition of the system [1] | Composition of the reaction mixture ([1]; reaction time 27 h) | Composition of the reaction mixture ([1]; reaction time 117 h) | Composition of the reaction mixture ([1]; reaction time 143 h) | Composition of the reaction mixture ([1]; reaction time 216 h) | Composition of the reaction mixture ([1]; reaction time 288 h) | α-glucosidase activity detected on substrate [2] | hydrolytic activity observed on substrate [3] | Specific activity [3] | Specific activity ([2]; X. dendrorhous extracellular fraction (F-0), release of glucose)
1 | OC[C@H]1O[C@H](OC[C@H]2O[C@H](O[C@H]3[C@H](O)[C@@H](O)[C@@H](O[C@H]4[C@H](O)[C@@H](O)[C@@H](O)O[C@@H]4CO)O[C@@H]3CO)[C@H](O)[C@@H](O)[C@@H]2O)[C@H](O)[C@@H](O)[C@@H]1O [compound 7, α-D-Glu-(1→6)-α-D-Glu-(1→4)-α-D-Glu-(1→4)-α-D-Glu] | 17.6 g/L | 0 grams/liter | 8.8 grams/liter | 10.1 grams/liter | 14.5 grams/liter | 17.6 grams/liter | – | – | – | –
2 | OC[C@H]1O[C@H](OC[C@H]2OC(O)[C@H](O)[C@@H](O)[C@@H]2O)[C@H](O)[C@@H](O)[C@@H]1O (stereo partly shown) [isomaltose] | 14.4 g/L | 0 grams/liter | 12.7 grams/liter | 12.4 grams/liter | 13.1 grams/liter | 14.4 grams/liter | not detected | No activity | – | –
3 | OC[C@H]1O[C@H](OC[C@H]2O[C@H](OC[C@H]3OC(O)[C@H](O)[C@@H](O)[C@@H]3O)[C@H](O)[C@@H](O)[C@@H]2O)[C@H](O)[C@@H](O)[C@@H]1O (stereo partly shown) [isomaltotriose] | – | – | – | – | – | – | not detected | No activity | – | –
4 | OC[C@H]1O[C@H](O[C@H]2[C@H](O)[C@@H](O)[C@@H](O[C@H]3[C@H](O)[C@@H](O)[C@@H](O[C@H]4[C@H](O)[C@@H](O)C(O)O[C@@H]4CO)O[C@@H]3CO)O[C@@H]2CO)[C@H](O)[C@@H](O)[C@@H]1O (stereo partly shown) [maltotetraose] | 15.4 g/L | 0 grams/liter | 11.0 grams/liter | 12.4 grams/liter | 15.1 grams/liter | 15.4 grams/liter | – | – | – | –
5 | OC[C@H]1O[C@H](OC[C@H]2O[C@H](O[C@H]3[C@H](O)[C@@H](O)C(O)O[C@@H]3CO)[C@H](O)[C@@H](O)[C@@H]2O)[C@H](O)[C@@H](O)[C@@H]1O (stereo partly shown) [panose] | 21.2 g/L | 5.7 grams/liter | 14.7 grams/liter | 16.1 grams/liter | 18.9 grams/liter | 21.2 grams/liter | – | – | – | –
6 | dextran | – | – | – | – | – | – | not detected | No activity | – | –
7 | glycogen | – | – | – | – | – | – | – | – | 197 U/μg | –
8 | maltodextrin | – | – | – | – | – | – | – | – | 747 U/μg | 21 U/μg
9 | pullulan | – | – | – | – | – | – | – | No activity | – | –
